# Results published in publication PMC8364686, “Safety, tolerability, pharmacokinetics and pharmacodynamics of single oral doses of BI 187004, an inhibitor of 11beta-hydroxysteroid dehydrogenase-1, in healthy male volunteers with overweight or obesity” (Clinical Diabetes and Endocrinology, 2021).
# Test: Plasma pharmacokinetics of BI 187004 after single oral doses (LC–MS/MS)
# Conditions: male, human, plasma, po; for concentration at 6 h: planned time 6 h; for concentration at 8 h: planned time 8 h; for concentration at 10 h: planned time 10 h; for concentration at 12 h: planned time 12 h; for concentration at 36 h: planned time 36 h; for concentration at 48 h: planned time 48 h; for concentration at 72 h: planned time 72 h; for concentration at 96 h: planned time 96 h; for concentration at 0.5 h: planned time 0.5 h; for concentration at 1 h: planned time 1 h; for concentration at 1.5 h: planned time 1.5 h; for concentration at 2 h: planned time 2 h; for concentration at 2.5 h: planned time 2.5 h; for concentration at 3 h: planned time 3 h; for concentration at 4 h: planned time 4 h; for concentration at 5 h: planned time 5 h
# [1] = 240 mg, BI 187004 plasma concentrations, gMean, 240 mg single oral
# [2] = 360 mg, BI 187004 plasma concentrations, 360 mg single oral, individual subjects
# [3] = 360 mg, BI 187004 plasma concentrations, Max, 360 mg single oral
# [4] = 360 mg, BI 187004 plasma concentrations, Mean, 360 mg single oral
# [5] = 360 mg, BI 187004 plasma concentrations, Median, 360 mg single oral
# [6] = 360 mg, BI 187004 plasma concentrations, Min, 360 mg single oral
# [7] = 360 mg, BI 187004 plasma concentrations, gMean, 360 mg single oral
smiles,measurement,setting,value
N#Cc1ccc2c(c1)[C@H]1CCCN(C(=O)c3ccc4[nH]cnc4c3)[C@H]1C2 [BI 187004],concentration at 6 h,[1],3.28 µM
same,concentration at 8 h,[1],2.65 µM
same,concentration at 10 h,[1],2.6 µM
same,concentration at 12 h,[1],1.99 µM
same,concentration at 24 h,"240 mg, BI 187004 plasma concentrations, gMean, 240 mg single oral, planned time 24 h",2.13 µM
same,concentration at 36 h,[1],0.885 µM
same,concentration at 48 h,[1],0.465 µM
same,concentration at 72 h,[1],0.118 µM
same,concentration at 96 h,[1],0.0419 µM
same,concentration at 24 h,"240 mg, C24 gMean (%gCV), 240 mg single oral dose",2.13 µM
same,AUC(0-inf),360 mg,191 µM·h
same,AUC(0-t),360 mg,135 µM·h
same,Cmax,360 mg,13.4 µM
same,Tmax,360 mg,1 h
same,Vd/F,360 mg,110 L
same,half-life,360 mg,13.9 h
same,concentration at 6 h,[2],10.2 µM
same,concentration at 8 h,[2],9.51 µM
same,concentration at 12 h,[2],6.08 µM
same,concentration at 0.5 h,[3],16.8 µM
same,concentration at 1 h,[3],18.4 µM
same,concentration at 1.5 h,[3],15.9 µM
same,concentration at 2 h,[3],14.5 µM
same,concentration at 2.5 h,[3],14.6 µM
same,concentration at 3 h,[3],12.9 µM
same,concentration at 4 h,[3],12.2 µM
same,concentration at 5 h,[3],9.63 µM
same,concentration at 6 h,[3],10.2 µM
same,concentration at 8 h,[3],9.51 µM
same,concentration at 10 h,[3],7.68 µM
same,concentration at 12 h,[3],6.08 µM
same,concentration at 24 h,"360 mg, BI 187004 plasma concentrations, Max, 360 mg single oral, planned time 24 h",4.74 µM
same,concentration at 36 h,[3],1.99 µM
same,concentration at 48 h,[3],1.47 µM
same,concentration at 72 h,[3],0.516 µM
same,concentration at 96 h,[3],0.174 µM
same,concentration at 0.5 h,[4],11.5 µM
same,concentration at 1 h,[4],13.1 µM
same,concentration at 1.5 h,[4],11.5 µM
same,concentration at 2 h,[4],10.9 µM
same,concentration at 2.5 h,[4],10.3 µM
same,concentration at 3 h,[4],9.36 µM
same,concentration at 4 h,[4],9.59 µM
same,concentration at 5 h,[4],7.55 µM
same,concentration at 6 h,[4],7.25 µM
same,concentration at 8 h,[4],6.85 µM
same,concentration at 10 h,[4],5.5 µM
same,concentration at 12 h,[4],4.83 µM
same,concentration at 24 h,"360 mg, BI 187004 plasma concentrations, Mean, 360 mg single oral, planned time 24 h",2.84 µM
same,concentration at 36 h,[4],1.48 µM
same,concentration at 48 h,[4],0.898 µM
same,concentration at 72 h,[4],0.301 µM
same,concentration at 96 h,[4],0.095 µM
same,concentration at 0.5 h,[5],11.6 µM
same,concentration at 1 h,[5],13.3 µM
same,concentration at 1.5 h,[5],11.6 µM
same,concentration at 2 h,[5],10.8 µM
same,concentration at 2.5 h,[5],10.2 µM
same,concentration at 3 h,[5],9.34 µM
same,concentration at 4 h,[5],10.3 µM
same,concentration at 5 h,[5],7.87 µM
same,concentration at 6 h,[5],6.45 µM
same,concentration at 8 h,[5],6.27 µM
same,concentration at 10 h,[5],5.62 µM
same,concentration at 12 h,[5],4.63 µM
same,concentration at 24 h,"360 mg, BI 187004 plasma concentrations, Median, 360 mg single oral, planned time 24 h",2.66 µM
same,concentration at 36 h,[5],1.49 µM
same,concentration at 48 h,[5],0.869 µM
same,concentration at 72 h,[5],0.281 µM
same,concentration at 96 h,[5],0.0816 µM
same,concentration at 0.5 h,[6],5.8 µM
same,concentration at 1 h,[6],7.17 µM
same,concentration at 1.5 h,[6],6.45 µM
same,concentration at 2 h,[6],6.66 µM
same,concentration at 2.5 h,[6],5.66 µM
same,concentration at 3 h,[6],6.3 µM
same,concentration at 4 h,[6],5.67 µM
same,concentration at 5 h,[6],4.81 µM
same,concentration at 6 h,[6],5.79 µM
same,concentration at 8 h,[6],5.06 µM
same,concentration at 10 h,[6],3.36 µM
same,concentration at 12 h,[6],3.78 µM
same,concentration at 24 h,"360 mg, BI 187004 plasma concentrations, Min, 360 mg single oral, planned time 24 h",1.79 µM
same,concentration at 36 h,[6],0.83 µM
same,concentration at 48 h,[6],0.375 µM
same,concentration at 72 h,[6],0.0691 µM
same,concentration at 96 h,[6],0.0168 µM
same,concentration at 0.5 h,[7],10.8 µM
same,concentration at 1 h,[7],12.6 µM
same,concentration at 1.5 h,[7],11.1 µM
same,concentration at 2 h,[7],10.6 µM
same,concentration at 2.5 h,[7],9.71 µM
same,concentration at 3 h,[7],9.14 µM
same,concentration at 4 h,[7],9.32 µM
same,concentration at 5 h,[7],7.36 µM
same,concentration at 6 h,[7],7.11 µM
same,concentration at 8 h,[7],6.71 µM
same,concentration at 10 h,[7],5.3 µM
same,concentration at 12 h,[7],4.78 µM
same,concentration at 24 h,"360 mg, BI 187004 plasma concentrations, gMean, 360 mg single oral, planned time 24 h",2.69 µM
same,concentration at 36 h,[7],1.41 µM
same,concentration at 48 h,[7],0.814 µM
same,concentration at 72 h,[7],0.246 µM
same,concentration at 96 h,[7],0.0723 µM
same,concentration at 24 h,"360 mg, C24 gMean (%gCV), 360 mg single oral dose",2.69 µM
